Key:
[1] = system: glioma GL261 cells; test: Cytotoxicity experiment (CCK8); assay type: cell-based; conditions: 1.172-150 μg/mL, 4 h drug then 20 h culture
Description: Gl261 cells in logarithmic growth phase are uniformly inoculated into sterile 96-well plates with 2×10^3 cells per well, and no cells are seeded around the plates, then 100 μL […] is added into each well and cultured under the condition of 37° C. and 5% CO2 for 24 h; remove the culture medium and add 100 μL of drug-containing medium (concentration gradient set at […], 75.000 μg/mL, 37.500 μg/mL, 18.750 μg/mL, 9.375 μg/mL, 4.688 μg/mL, 2.344 μg/mL, and 1.172 μg/mL), the drug-containing medium is removed after culture for 4 h, and 100 μL of medium is added to each well for further culture for 20 h. The culture medium is removed, and culture medium containing 10% CCK8 is added. After incubation for 1 h, the absorbance is measured with a microplate reader, and the cell viability is determined by the following formula […].

[2] = Particle size detection; assay type: physicochemical
Description: 1.2 Particle Size Detection

[3] = Potential detection (zeta potential); assay type: physicochemical

PDI [2]: 0.545
Hydrodynamic diameter ([2]; 0.0309 g curcumin+10 ml water suspension): 4.053 μm
Average zeta potential [3]: −36.5 mv
SMILES: COc1cc(/C=C/C(=O)CC(=O)/C=C/c2ccc(O)c(OC)c2)ccc1O [Free Curcumin, Curcumin]
toxicity to GL261 cells [1]: no obvious toxicity

Source: patent publication US20220211795A1 (Chenland Nutritionals Inc., priority 2021, published 2022)
